Data from patent US6287840A (Axys Pharmaceuticals, Inc., priority 1999, dated 2001).
Like-named read-outs stand apart in the source and are kept apart here.

How the values were obtained:
[1] = system: human malarial parasite Plasmodium falciparum; test: In vitro protease activity of malarial parasite, substrate Z-Phe-Arg-AMC; assay type: biochemical; settings: read-out: P. falciparum IC50 (human)
Source text: (§1) The following table summarizes the comparative IC50 values for selected cysteine protease inhibitors against the human malarial parasite Plasmodium falciparum and the mouse malarial parasite Plasmodium vinckei. The substrate used to measure in vitro protease activity was Z-Phe-Arg-AMC.

[2] = system: mouse malarial parasite Plasmodium vinckei; test: as above; assay type: biochemical; settings: read-out: P. vinckei IC50 (murine)
Source text: as §1

[3] = Stability of selected inhibitors toward glutathione (Ellmans reagent); assay type: physicochemical; settings: for reaction with GSH: after 24 hours, pH=6.2, 15% DMF, 20° C.
Method: The inhibitors (5 mM) were incubated with glutathione (GSH) (0.3 mM) in phosphate buffer (50 mM) at pH=6.2 containing 15% DMF at 20° C. Periodically, 50 μL samples were added to 1 mL of buffer and treated with 10 μL of 30 mM Ellmans reagent and the absorbance measured at 412 nm.

[4] = molecular target: T1, Cathepsin L from rat liver (Rattus norvegicus, UniProt P07154); test: Inhibition of cathepsin L, Z-Phe-Arg-AMC fluorescence progress curves; assay type: biochemical; settings: for Ki: corrected for substrate; for k/KI (kirr/KI): values without asterisk; for k/KI (kirr/KI) / kobs /[I]* (approximate second-order inactivation constant): 25° C., pH 6.2; for kobs /[I]* (approximate second-order inactivation constant): values marked *
T1 construct: Cathepsin L from rat liver; from tissue; host or cells: rat liver
T1 sequence (P07154 114-288 limits assumed): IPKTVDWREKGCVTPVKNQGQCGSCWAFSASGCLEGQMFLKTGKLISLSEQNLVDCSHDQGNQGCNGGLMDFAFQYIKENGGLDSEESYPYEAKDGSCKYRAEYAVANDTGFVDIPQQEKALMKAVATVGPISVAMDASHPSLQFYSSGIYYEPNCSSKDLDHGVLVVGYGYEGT
T1 sequence (P07154 291-334 limits assumed): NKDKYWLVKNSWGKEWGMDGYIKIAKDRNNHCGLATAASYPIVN
Method in brief: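 Progress curves of AMC release (380/460 nm) over at least 3 inactivation half-times were fitted to kobs, reported as kobs/[I] or, via 1/[I] vs 1/kobs, kirr, KI (substrate-corrected) and kirr/KI.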

[5] = molecular target: T2, Cathepsin B from human placenta (Homo sapiens, UniProt P07858); test: Inhibition of cathepsin B, Z-Arg-Arg-AMC fluorescence progress curves; assay type: biochemical; settings: for Ki: corrected for substrate; for k/KI (kirr/KI): values without asterisk
T2 construct: Cathepsin B from human placenta, obtained from Sigma; purchased Sigma; host or cells: human placenta (tissue)
Method in brief: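 Human placental enzyme (~10 nM) in 50 mM phosphate pH 6.2 with 2.5 mM DTT and 2.5 mM EDTA, 50 μM Z-Arg-Arg-AMC, inhibitors 30-0.001 μM, 25° C. AMC fluorescence (ex 380/em 460 nm) progress curves fitted for kobs; kobs/[I] reported, with kirr, KI and kirr/KI substrate-corrected for selected compounds.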

U87MG = test: Matrigel barrier migration assay, U87MG; assay type: cell-based, human; design: dose or concentration left out as unconfirmed
Method: (§2) Two permanent human glioma cell lines (U87MG and U251MGn) and a well characterized low passage primary culture derived from a CB-positive glioblastoma (HF66) were used to assess the migratory behavior in the Matrigel barrier migration assay in the presence of graded concentrations of four compounds.
(§3) Using the Matrigel assay, Mu-Leu-HphVSPh, Mu-Tyr-HphVSPh, Mu-Phe-HphVSPh, and Mu-Tyr(I2)-HphVSPh (all at 10 mM) inhibited U251MGn by 67, 56, 29, & 20% respectively, while the U87MG cells were inhibited 53, 75, 63, & 56% respectively. The primary culture HF66 cells were inhibited only 10% by these compounds at the same concentration.

U251MGn = test: Matrigel barrier migration assay, U251MGn; assay type: cell-based, human; design: dose or concentration left out as unconfirmed
Method: as §2, §3

Cloned cathepsin S = molecular target: T3, Cloned cathepsin S (Homo sapiens, UniProt P25774); test: Inhibition of cathepsin S, Z-Val-Val-Arg-AMC fluorescence progress curves; assay type: biochemical; settings: for kobs /[I]* (approximate second-order inactivation constant): values marked *; for kobs /[I]* (approximate second-order inactivation constant) / k/KI (kirr/KI): 25° C., pH 6.5; for Ki: corrected for substrate; for k/KI (kirr/KI): values without asterisk
T3 construct: made in house
T3 sequence (P25774 115-331): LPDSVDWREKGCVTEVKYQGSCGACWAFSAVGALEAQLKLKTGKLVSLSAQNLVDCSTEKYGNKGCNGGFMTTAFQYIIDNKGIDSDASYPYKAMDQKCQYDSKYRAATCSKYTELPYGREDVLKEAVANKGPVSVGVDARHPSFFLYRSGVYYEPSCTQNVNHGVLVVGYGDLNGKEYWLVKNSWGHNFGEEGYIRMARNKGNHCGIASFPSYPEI
Method in brief: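 Progress curves at 25 °C in 100 mM phosphate pH 6.5, 2.5 mM DTT, 2.5 mM EDTA, 0.01% Triton, enzyme <1 nM, 10 μM substrate, inhibitors 30-0.001 μM; AMC fluorescence ex 380/em 460 nm. kobs from nonlinear fits gave kobs/[I]; selected compounds yielded kirr, KI (substrate-corrected), kirr/KI.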

cruzain, from T. cruzi = cruzain, from T. cruzi (Trypanosoma cruzi, UniProt P25779); test: Inhibition of cruzain, as for cathepsin L; assay type: biochemical; settings: for kobs /[I]* (approximate second-order inactivation constant): values marked *; for k/KI (kirr/KI): values without asterisk
Chain of cruzain, from T. cruzi (P25779 123-337 limits assumed): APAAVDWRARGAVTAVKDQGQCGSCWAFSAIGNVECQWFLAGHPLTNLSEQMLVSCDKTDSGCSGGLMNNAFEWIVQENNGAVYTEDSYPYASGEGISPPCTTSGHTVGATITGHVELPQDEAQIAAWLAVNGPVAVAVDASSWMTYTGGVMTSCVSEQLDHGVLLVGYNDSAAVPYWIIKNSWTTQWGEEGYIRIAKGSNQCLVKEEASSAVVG
Method in brief: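 Run as for cathepsin L with 1 nM cruzain in 50 mM phosphate pH […], 2.5 mM DTT, 2.5 mM EDTA, 5 μM Z-Phe-Arg-AMC, at 25 °C, inhibitors 30-0.001 μM; fluorescence (ex 380/em 460 nm) followed continuously. kobs fitted from progress curves and kobs/[I] reported; selected compounds gave kirr, KI, kirr/KI, with KI corrected by (1+[S]/Km).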

[6] = system: Trypanosoma brucei extracellular bloodstream forms; test: In vitro antiprotozoal activity, Trypanosoma brucei; assay type: cell-based
Method: (§4) In this table, the in vitro antiprotozoal activities of the indicated compounds were measured as percentage inhibition of Leishmania donovani amastigote infecteda mouse peritoneal macrophages, Trypanosoma cruzi amastigote infected macrophages, and Trypanosoma brucei extracellular bloodstream forms.

T. cruzi = T. cruzi infected irradiated J774 cells; assay type: cell-based; design: dose or concentration left out as unconfirmed; settings: thereafter without inhibitor; compounds listed in decreasing order of effectiveness
Method: Irradiated J774 cells were infected with T. cruzi and simultaneously treated with […] of peptidyl vinyl derivatives for 5 days; thereafter without inhibitor. The following compounds were effective in decreasing order: Mu-Phe-ArgVSPh, Boc-Tyr(I2)-HphVSPh, Mu-Phe-VaIVSPh, Boc-Tic-HphVSPh, Mu-Phe-Ser(OBzl)VSPh, Mu-Leu-HphVSPh, Mu-Tyr(I2)-HphVSPh, Mu-Phe-LysVSPh, Mu-Tic-HphVSPh.

calpain = test: Inhibition (inactivation) of calpain, Suc-Leu-Tyr-AMC; assay type: biochemical; settings: values marked * (or %); pH 7.5, 5 mM CaCl2, 25° C.
Method: The inhibitors were tested against calpain at 1 or 2% as for the other enzymes. The reaction conditions were 50 mM Tris, pH 7.5, 5 mM CaCl2, 2.5 mM DTT, assayed at 25° C. The substrate was 100 μM Suc-Leu-Tyr-AMC.

[7] = system: Leishmania donovani amastigote infected mouse peritoneal macrophages; test: In vitro antiprotozoal activity, Leishmania donovani; assay type: cell-based; design: key to percentage inhibition, L. donovani: the term "T" indicates the molecule to have displayed cytotoxicity
Method: as §4

[8] = system: Trypanosoma cruzi amastigote infected macrophages; test: In vitro antiprotozoal activity, Trypanosoma cruzi; assay type: cell-based
Method: as §4

chymotrypsin = test: Selectivity versus serine proteases: chymotrypsin; assay type: biochemical; settings: 100 μM

Compound | IC50 ([2]; cells printed in nM) [nM] | kirr [4] [s⁻¹] | Ki [4] [nM] | k/KI (kirr/KI) [4] | kirr [5] [s⁻¹] | Ki [5] [nM] | k/KI (kirr/KI) ([5]; 25° C., pH 6.2) | kobs /[I]* (approximate second-order inactivation constant) [4] | kobs /[I]* (approximate second-order inactivation constant) (cruzain, from T. cruzi) | kirr (Cloned cathepsin S) [s⁻¹] | Ki (Cloned cathepsin S) [nM] | effectiveness against T. cruzi in J774 cells (T. cruzi) | k/KI (kirr/KI) (Cloned cathepsin S) | also measured
Br.CCOC(=O)/C=C/[C@H](CCCNC(=N)N)NC(=O)[C@H](Cc1ccccc1)NC(=O)N1CCOCC1 [Mu-Phe-ArgVEOEt.HBr, ethyl (S)-(E)-7-guanidino-4-(4-morpholinecarbonylphenylalanyl)amino-2-heptenoatehydrobromide] | 200 | 0.18 | 3100 | 56,900 M^-1 sec^-1 | 0.16 | 19000 | 8200 M⁻¹ s⁻¹ |  |  |  |  |  |  | IC50 ([1]; cells printed in nM): 300 nM; second order rate constant for the loss of GSH ([3]; inhibitor 5 mM, GSH 0.3 mM, pH=6.2, 20° C.): 0.0053 M⁻¹ s⁻¹; times more reactive with GSH ([3]; relative to Mu-Phe-LysVSPh): 10 times
(S)-(E)-3-(4-morpholinecarbonyltyrosyl)amino-5-phenyl-1-phenylsulfonyl-1-pentene [Mu-Tyr-HphVSPh] |  |  |  |  |  |  |  | 700,000 M^-1 sec^-1 | 297,000 M^-1 sec^-1 |  |  |  |  | inhibition of U87MG migration (U87MG): 75%; inhibition of U251MGn migration (U251MGn): 56%; kobs /[I]* (approximate second-order inactivation constant) (Cloned cathepsin S): 4,200,000 M^-1 sec^-1; kobs /[I]* (approximate second-order inactivation constant) ([5]; values marked *, 25° C., pH 6.2): 20,000 M^-1 sec^-1
CS(=O)(=O)/C=C/[C@H](CCc1ccccc1)NC(=O)[C@H](Cc1ccccc1)NC(=O)N1CCOCC1 [Mu-Phe-HphVSMe, (S)-(E)-5-(4-morpholinecarbonylphenylalanyl)amino-7-phenyl-2-thia-3-heptene 2,2-dioxide] |  |  |  |  | 0.13 | 26000 | 5100 M⁻¹ s⁻¹ | 8700 M⁻¹ s⁻¹ | 22,000 M^-1 sec^-1 | 0.10 | 88 |  |  | IC50 ([1]; cells printed in μM): 1000 nM; IC50 ([2]; cells printed in μM): 1000 nM; reaction with GSH ([3]; inhibitor 5 mM, GSH 0.3 mM): no measurable reaction
Br.N=C(N)NCCC[C@@H](/C=C/S(=O)(=O)c1ccccc1)NC(=O)[C@H](Cc1ccccc1)NC(=O)N1CCOCC1 [Mu-Phe-ArgVSPh.HBr, (S)-(E)-3-(4-morpholinecarbonylphenylalanyl)amino-6-guanidino-1-phenylsulfonyl-1-hexene hydrobromide] | 50 | 0.67 | 1900 | 349,000 M^-1 sec^-1 | 0.15 | 12000 | 12,300 M^-1 sec^-1 |  |  | 0.031 | 16 | effective | 2,000,000 M^-1 sec^-1 | percentage inhibition, T. brucei ([6]; 3 uM): 0%; percentage inhibition, T. brucei ([6]; 10 uM): 0%; percentage inhibition, T. brucei ([6]; 30 uM): 0%; percentage inhibition, T. brucei ([6]; 90 uM): 0%; kobs /[I]* (calpain): < 50 M⁻¹ s⁻¹; IC50 ([1]; cells printed in nM): 50 nM; percentage inhibition, L. donovani ([7]; 3 uM): 0%; percentage inhibition, L. donovani ([7]; 10 uM): 0%; percentage inhibition, L. donovani ([7]; 30 uM): 0%; percentage inhibition, L. donovani ([7]; 90 uM): 1.3%; k/KI (kirr/KI) (cruzain, from T. cruzi): 91,400 M^-1 sec^-1; percentage inhibition, T. cruzi ([8]; 3 uM): 0%; percentage inhibition, T. cruzi ([8]; 10 uM): 0%; percentage inhibition, T. cruzi ([8]; 30 uM): 0%; percentage inhibition, T. cruzi ([8]; 90 uM): 5.8%
C[C@H](NC(=O)OC(C)(C)C)C(=O)N[C@H](/C=C/S(=O)(=O)c1ccccc1)Cc1ccccc1 [Boc-Ala-PheVSPh] |  |  |  |  |  |  |  |  |  |  |  |  |  | binding to chymotrypsin (chymotrypsin; 100 mM TRIS buffer at pH=7.5): did not bind; inactivation of chymotrypsin (chymotrypsin; pH=7.5, after 1 hour): nor did it inactivate
(S)-(E)-3-(4-morpholinecarbonylphenylalanyl)amino-4-benzyloxy-1-phenylsulfonyl-1-butene [Mu-Phe-Ser(OBzl)VSPh] | 500 | 0.20 | 4600 | 42,700 M^-1 sec^-1 | 0.14 | 47000 | 2900 M⁻¹ s⁻¹ |  |  | 0.092 | 74 | effective | 1,240,000 M^-1 sec^-1 | percentage inhibition, T. brucei ([6]; 1 uM): 5.2%; percentage inhibition, T. brucei ([6]; 3 uM): 11.5%; percentage inhibition, T. brucei ([6]; 10 uM): 93.3%; percentage inhibition, T. brucei ([6]; 30 uM): 1.00%; percentage inhibition, T. brucei ([6]; 90 uM): 100%; kobs /[I]* (calpain): < 50 M⁻¹ s⁻¹; IC50 ([1]; cells printed in μM): 1000 nM; percentage inhibition, L. donovani ([7]; 3 uM): 100%; percentage inhibition, L. donovani ([7]; 10 uM): 100%; percentage inhibition, L. donovani ([7]; 30 uM): 100%; percentage inhibition, L. donovani ([7]; 90 uM): T; k/KI (kirr/KI) (cruzain, from T. cruzi): 12,800 M^-1 sec^-1; percentage inhibition, T. cruzi ([8]; 3 uM): 5.2%; percentage inhibition, T. cruzi ([8]; 10 uM): 15.7%; percentage inhibition, T. cruzi ([8]; 30 uM): 15.1%; percentage inhibition, T. cruzi ([8]; 90 uM): 50.7%
CCOP(=O)(C/C=C/[C@H](CCc1ccccc1)NC(=O)[C@H](Cc1ccccc1)NC(=O)N1CCOCC1)OCC [Mu-Phe-HphVPEt, diethyl (S)-(E)-4-(4-morpholinecarbonylphenylalanyl)amino-6-phenyl-2-hexenephosphonate] |  | 0.16 | 39000 | 4100 M⁻¹ s⁻¹ |  |  |  |  |  | 0.40 | 36000 |  | 11,200 M^-1 sec^-1 | reaction with GSH ([3]; inhibitor 5 mM, GSH 0.3 mM): no measurable reaction
O=C(N[C@H](/C=C/S(=O)(=O)c1ccccc1)CCc1ccccc1)C(Cc1cc(I)c(O)c(I)c1)NC(=O)N1CCOCC1 (stereo partly drawn) [Mu-Tyr(I2)-HphVSPh, (S)-(E)-3-[4-morpholinecarbonyl-(3,5-diiodotyrosyl)]-amino-5-phenyl-1-phenylsulfonyl-1-pentene] |  |  |  |  | 0.18 | 4700 | 39,200 M^-1 sec^-1 | 190,000 M^-1 sec^-1 | 114,000 M^-1 sec^-1 |  |  | effective |  | inhibition of U87MG migration (U87MG): 56%; inhibition of U251MGn migration (U251MGn): 20%; kobs /[I]* (approximate second-order inactivation constant) (Cloned cathepsin S): > 7,300,000 M^-1 sec^-1
